Measurements: patent US12723063B2, “GIPR-agonist compounds” (Eli Lilly and Company, priority 2019, dated 2026)
*1 amine or outer side, *2 acyl side, *3 side chain or, on linkers, in order; H or OH if unused. Where a SMILES comes first, the peptide text is derived from it. Side-chain parts run from the residue outwards. [ ]: non-standard residue; d: D form. The star is where a group is joined. C20 diacid = O=C(O)CCCCCCCCCCCCCCCCCCC(=O)*; αMePhe(2-F) = C[C@](N)(Cc1ccccc1F)C(=O)O; γGlu = O=C(O)[C@H](CCC(=O)[*:2])N[*:1]; 4Pal = N[C@@H](Cc1ccncc1)C(=O)O; αMeL = CC(C)C[C@](C)(N)C(=O)O; AEEA = NCCOCCOCC(=O)O; Aib = CC(C)(N)C(=O)O

Tests used:
human GLP-1R = biological target: T1, human GLP-1R (Homo sapiens, UniProt P43220); test: [125I]-GLP-1 binding, SPA with WGA beads, 0.1% bacitracin; conditions: geometric mean, read-out: hGLP1R Ki
T1 construct: expressed in transfected cells; crude membranes
In short: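 Binding buffer was 25 mM HEPES pH 7.4 with 2.5 mM CaCl2, 1 mM MgCl2, 0.1% (w/v) bacitracin, 0.003% Tween-20 and EDTA-free protease inhibitors. Four-parameter regression gave IC50, converted to Ki (geometric mean, SEM, n independent days).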

human GIPR = biological target: T2, human GIPR (Homo sapiens, UniProt P48546); test: [125I]-GIP binding, SPA with WGA beads, 0.1% bacitracin; conditions: geometric mean, read-out: hGIPR Ki
T2 construct: expressed in transfected cells; crude membranes
T2 sequence (P48546 22-466): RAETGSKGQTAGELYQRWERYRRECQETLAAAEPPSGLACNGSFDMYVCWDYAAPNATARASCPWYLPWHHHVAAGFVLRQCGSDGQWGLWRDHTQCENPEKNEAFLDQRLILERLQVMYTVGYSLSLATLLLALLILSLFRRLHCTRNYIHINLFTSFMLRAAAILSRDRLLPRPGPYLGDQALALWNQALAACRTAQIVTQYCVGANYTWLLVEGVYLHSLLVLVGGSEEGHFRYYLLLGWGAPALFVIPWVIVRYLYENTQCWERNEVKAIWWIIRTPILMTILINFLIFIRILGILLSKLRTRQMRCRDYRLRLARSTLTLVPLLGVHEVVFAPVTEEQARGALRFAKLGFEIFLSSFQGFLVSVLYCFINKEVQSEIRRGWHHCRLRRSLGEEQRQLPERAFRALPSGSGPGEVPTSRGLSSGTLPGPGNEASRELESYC
In short: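 Ki values are geometric means (SEM, n independent days), derived from four-parameter nonlinear regression of IC50. Membranes came from hGIPR-expressing CHO cells.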

T1 sequence (P43220 24-463): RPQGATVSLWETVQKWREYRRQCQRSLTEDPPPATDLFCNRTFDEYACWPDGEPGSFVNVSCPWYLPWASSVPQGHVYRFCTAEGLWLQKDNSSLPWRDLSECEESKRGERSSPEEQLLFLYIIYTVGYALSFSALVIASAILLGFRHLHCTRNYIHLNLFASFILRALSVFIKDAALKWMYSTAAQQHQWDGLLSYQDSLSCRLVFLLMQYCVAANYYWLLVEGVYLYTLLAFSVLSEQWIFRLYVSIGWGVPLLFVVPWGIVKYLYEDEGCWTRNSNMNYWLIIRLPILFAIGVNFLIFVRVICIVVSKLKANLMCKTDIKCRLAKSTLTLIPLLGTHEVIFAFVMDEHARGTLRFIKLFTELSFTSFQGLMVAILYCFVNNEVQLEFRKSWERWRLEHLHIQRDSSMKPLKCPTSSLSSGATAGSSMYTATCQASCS

SMILES	Ki (human GLP-1R)	Ki (human GIPR)
CC[C@H](C)[C@H](NC(=O)[C@H](CO)NC(=O)[C@H](Cc1ccc(O)cc1)NC(=O)[C@H](CC(=O)O)NC(=O)[C@H](CO)NC(=O)[C@@H](NC(=O)[C@](C)(Cc1ccccc1F)NC(=O)[C@@H](NC(=O)CNC(=O)[C@H](CCC(=O)O)NC(=O)C(C)(C)NC(=O)[C@@H](N)Cc1ccc(O)cc1)[C@@H](C)O)[C@@H](C)CC)C(=O)N[C@@H](C)C(=O)N[C@@H](CC(C)C)C(=O)N[C@@H](CC(=O)O)C(=O)N[C@@H](CCCCN)C(=O)N[C@@H](CCCCNC(=O)COCCOCCNC(=O)COCCOCCNC(=O)CC[C@H](NC(=O)CCCCCCCCCCCCCCCCCCC(=O)O)C(=O)O)C(=O)N[C@@H](Cc1c[nH]cn1)C(=O)N[C@@H](CCC(N)=O)C(=O)NC(C)(C)C(=O)N[C@@H](CC(=O)O)C(=O)N[C@@H](Cc1ccccc1)C(=O)N[C@H](C(=O)N[C@@H](CCC(=O)O)C(=O)N[C@@H](Cc1ccc(O)cc1)C(=O)N[C@@H](CC(C)C)C(=O)N[C@@H](CC(C)C)C(=O)N[C@@H](CCC(=O)O)C(=O)NCC(=O)NCC(=O)N1CCC[C@H]1C(=O)N[C@@H](CO)C(=O)N[C@@H](CO)C(=O)NCC(=O)N[C@@H](C)C(=O)N1CCC[C@H]1C(=O)N1CCC[C@H]1C(=O)N1CCC[C@H]1C(=O)N[C@@H](CO)C(N)=O)C(C)C [Example 37] (H-Y[Aib]EGT[αMePhe(2-F)]ISDYSIALDKK([AEEA-AEEA-γGlu-C20 diacid])HQ[Aib]DFVEYLLEGGPSSGAPPPS-NH2)	83.9 nM	0.026 nM
CC[C@H](C)[C@H](NC(=O)[C@H](Cc1ccccc1)NC(=O)[C@@H](NC(=O)CNC(=O)[C@H](CCC(=O)O)NC(=O)C(C)(C)NC(=O)[C@@H](N)Cc1ccc(O)cc1)[C@@H](C)O)C(=O)N[C@@H](CO)C(=O)N[C@@H](CC(=O)O)C(=O)N[C@@H](Cc1ccc(O)cc1)C(=O)N[C@@H](CO)C(=O)N[C@H](C(=O)N[C@@](C)(CC(C)C)C(=O)N[C@@H](CC(C)C)C(=O)N[C@@H](CC(=O)O)C(=O)N[C@@H](CCCCN)C(=O)N[C@@H](CCCCNC(=O)COCCOCCNC(=O)COCCOCCNC(=O)CC[C@H](NC(=O)CCCCCCCCCCCCCCCCCCC(=O)O)C(=O)O)C(=O)N[C@@H](Cc1c[nH]cn1)C(=O)N[C@@H](CCC(N)=O)C(=O)NC(C)(C)C(=O)N[C@@H](CC(=O)O)C(=O)N[C@@H](Cc1ccccc1)C(=O)N[C@H](C(=O)N[C@@H](CCC(=O)O)C(=O)N[C@@H](Cc1ccncc1)C(=O)N[C@@H](CC(C)C)C(=O)N[C@@H](CC(C)C)C(=O)N[C@@H](CCC(=O)O)C(=O)NCC(=O)NCC(=O)N1CCC[C@H]1C(=O)N[C@@H](CO)C(=O)N[C@@H](CO)C(=O)NCC(=O)N[C@@H](C)C(=O)N1CCC[C@H]1C(=O)N1CCC[C@H]1C(=O)N1CCC[C@H]1C(=O)N[C@@H](CO)C(N)=O)C(C)C)[C@@H](C)CC [Example 47] (H-Y[Aib]EGTFISDYSI[αMeL]LDKK([AEEA-AEEA-γGlu-C20 diacid])HQ[Aib]DFVE[4Pal]LLEGGPSSGAPPPS-NH2)	320 nM	0.0452 nM
CC[C@H](C)[C@H](NC(=O)[C@H](Cc1ccccc1)NC(=O)[C@@H](NC(=O)CNC(=O)[C@H](CCC(=O)O)NC(=O)C(C)(C)NC(=O)[C@@H](N)Cc1ccc(O)cc1)[C@@H](C)O)C(=O)N[C@@H](CO)C(=O)N[C@@H](CC(=O)O)C(=O)N[C@@H](Cc1ccc(O)cc1)C(=O)N[C@@H](CO)C(=O)N[C@H](C(=O)N[C@@](C)(CC(C)C)C(=O)N[C@@H](CC(C)C)C(=O)N[C@@H](CC(=O)O)C(=O)N[C@@H](CCCCN)C(=O)N[C@@H](CCCCNC(=O)COCCOCCNC(=O)COCCOCCNC(=O)CC[C@H](NC(=O)CCCCCCCCCCCCCCCCCCC(=O)O)C(=O)O)C(=O)N[C@@H](Cc1c[nH]cn1)C(=O)N[C@@H](CCC(N)=O)C(=O)NC(C)(C)C(=O)N[C@@H](CCC(=O)O)C(=O)N[C@@H](Cc1ccccc1)C(=O)N[C@H](C(=O)N[C@@H](CCC(=O)O)C(=O)N[C@@H](Cc1ccc(O)cc1)C(=O)N[C@@H](CC(C)C)C(=O)N[C@@H](CC(C)C)C(=O)N[C@@H](CCC(=O)O)C(=O)N[C@H](C(=O)NCC(=O)N1CCC[C@H]1C(=O)N[C@@H](CO)C(=O)N[C@@H](CO)C(=O)NCC(=O)N[C@@H](C)C(=O)N1CCC[C@H]1C(=O)N1CCC[C@H]1C(=O)N1CCC[C@H]1C(=O)N[C@@H](CO)C(N)=O)[C@@H](C)O)C(C)C)[C@@H](C)CC [Example 64] (H-Y[Aib]EGTFISDYSI[αMeL]LDKK([AEEA-AEEA-γGlu-C20 diacid])HQ[Aib]EFVEYLLETGPSSGAPPPS-NH2)	477 nM	0.022 nM
CC[C@H](C)[C@H](NC(=O)[C@H](Cc1ccccc1)NC(=O)[C@@H](NC(=O)CNC(=O)[C@H](CCC(=O)O)NC(=O)C(C)(C)NC(=O)[C@@H](N)Cc1ccc(O)cc1)[C@@H](C)O)C(=O)N[C@@H](CO)C(=O)N[C@@H](CC(=O)O)C(=O)N[C@@H](Cc1ccc(O)cc1)C(=O)N[C@@H](CO)C(=O)N[C@H](C(=O)N[C@@](C)(CC(C)C)C(=O)N[C@@H](CC(C)C)C(=O)N[C@@H](CC(=O)O)C(=O)N[C@@H](CCCCN)C(=O)N[C@@H](CCCCNC(=O)COCCOCCNC(=O)COCCOCCNC(=O)CC[C@H](NC(=O)CCCCCCCCCCCCCCCCCCC(=O)O)C(=O)O)C(=O)N[C@@H](Cc1c[nH]cn1)C(=O)N[C@@H](CCC(N)=O)C(=O)NC(C)(C)C(=O)N[C@@H](CCC(=O)O)C(=O)N[C@@H](Cc1ccccc1)C(=O)N[C@H](C(=O)N[C@@H](CCC(=O)O)C(=O)N[C@@H](Cc1ccncc1)C(=O)N[C@@H](CC(C)C)C(=O)N[C@@H](CC(C)C)C(=O)N[C@@H](C)C(=O)N[C@@H](CCC(N)=O)C(=O)NCC(=O)N1CCC[C@H]1C(=O)N[C@@H](CO)C(=O)N[C@@H](CO)C(=O)NCC(=O)N[C@@H](C)C(=O)N1CCC[C@H]1C(=O)N1CCC[C@H]1C(=O)N1CCC[C@H]1C(=O)N[C@@H](CO)C(N)=O)C(C)C)[C@@H](C)CC [Example 57] (H-Y[Aib]EGTFISDYSI[αMeL]LDKK([AEEA-AEEA-γGlu-C20 diacid])HQ[Aib]EFVE[4Pal]LLAQGPSSGAPPPS-NH2)	280 nM	0.0154 nM
CC[C@H](C)[C@H](NC(=O)[C@H](CO)NC(=O)[C@H](Cc1ccc(O)cc1)NC(=O)[C@H](CC(=O)O)NC(=O)[C@H](CO)NC(=O)[C@@H](NC(=O)[C@](C)(Cc1ccccc1F)NC(=O)[C@@H](NC(=O)CNC(=O)[C@H](CCC(=O)O)NC(=O)C(C)(C)NC(=O)[C@@H](N)Cc1ccc(O)cc1)[C@@H](C)O)[C@@H](C)CC)C(=O)N[C@@H](C)C(=O)N[C@@H](CC(C)C)C(=O)N[C@@H](CC(=O)O)C(=O)N[C@@H](CCCCN)C(=O)N[C@@H](CCCCNC(=O)COCCOCCNC(=O)COCCOCCNC(=O)CC[C@H](NC(=O)CCCCCCCCCCCCCCCCCCC(=O)O)C(=O)O)C(=O)N[C@@H](Cc1c[nH]cn1)C(=O)N[C@@H](CCC(N)=O)C(=O)NC(C)(C)C(=O)N[C@@H](CC(=O)O)C(=O)N[C@@H](Cc1ccccc1)C(=O)N[C@H](C(=O)N[C@@H](CCC(=O)O)C(=O)N[C@@H](Cc1ccncc1)C(=O)N[C@@H](CC(C)C)C(=O)N[C@@H](CC(C)C)C(=O)N[C@@H](CCC(=O)O)C(=O)NCC(=O)NCC(=O)N1CCC[C@H]1C(=O)N[C@@H](CO)C(=O)N[C@@H](CO)C(=O)NCC(=O)N[C@@H](C)C(=O)N1CCC[C@H]1C(=O)N1CCC[C@H]1C(=O)N1CCC[C@H]1C(=O)N[C@@H](CO)C(N)=O)C(C)C [Example 39] (H-Y[Aib]EGT[αMePhe(2-F)]ISDYSIALDKK([AEEA-AEEA-γGlu-C20 diacid])HQ[Aib]DFVE[4Pal]LLEGGPSSGAPPPS-NH2)	235 nM	0.0444 nM
CC[C@H](C)[C@H](NC(=O)[C@H](Cc1ccccc1)NC(=O)[C@@H](NC(=O)CNC(=O)[C@H](CCC(=O)O)NC(=O)C(C)(C)NC(=O)[C@@H](N)Cc1ccc(O)cc1)[C@@H](C)O)C(=O)N[C@@H](CO)C(=O)N[C@@H](CC(=O)O)C(=O)N[C@@H](Cc1ccc(O)cc1)C(=O)N[C@@H](CO)C(=O)N[C@H](C(=O)N[C@@](C)(CC(C)C)C(=O)N[C@@H](CC(C)C)C(=O)N[C@@H](CC(=O)O)C(=O)N[C@@H](CCCCN)C(=O)N[C@@H](CCCCNC(=O)COCCOCCNC(=O)COCCOCCNC(=O)CC[C@H](NC(=O)CCCCCCCCCCCCCCCCCCC(=O)O)C(=O)O)C(=O)N[C@@H](Cc1c[nH]cn1)C(=O)N[C@@H](CCC(N)=O)C(=O)NC(C)(C)C(=O)N[C@@H](CC(=O)O)C(=O)N[C@@](C)(Cc1ccccc1)C(=O)N[C@H](C(=O)N[C@@H](CCC(=O)O)C(=O)N[C@@H](Cc1ccncc1)C(=O)N[C@@H](CC(C)C)C(=O)N[C@@H](CC(C)C)C(=O)N[C@@H](C)C(=O)NCC(=O)NCC(=O)N1CCC[C@H]1C(=O)N[C@@H](CO)C(=O)N[C@@H](CO)C(=O)NCC(=O)N[C@@H](C)C(=O)N1CCC[C@H]1C(=O)N1CCC[C@H]1C(=O)N1CCC[C@H]1C(=O)N[C@@H](CO)C(N)=O)C(C)C)[C@@H](C)CC [Example 56]	530 nM	0.0487 nM
